The values that follow come from ChEMBL document CHEMBL1909046, “DrugMatrix in vitro pharmacology data”.

For experiment [1], the target named is T1, 5-hydroxytryptamine receptor 1A (Rattus norvegicus, UniProt P19327). Note: in other assays of this panel Not Active means under 50% inhibition at 10 µM.
T1 sequence (P19327 whole entry): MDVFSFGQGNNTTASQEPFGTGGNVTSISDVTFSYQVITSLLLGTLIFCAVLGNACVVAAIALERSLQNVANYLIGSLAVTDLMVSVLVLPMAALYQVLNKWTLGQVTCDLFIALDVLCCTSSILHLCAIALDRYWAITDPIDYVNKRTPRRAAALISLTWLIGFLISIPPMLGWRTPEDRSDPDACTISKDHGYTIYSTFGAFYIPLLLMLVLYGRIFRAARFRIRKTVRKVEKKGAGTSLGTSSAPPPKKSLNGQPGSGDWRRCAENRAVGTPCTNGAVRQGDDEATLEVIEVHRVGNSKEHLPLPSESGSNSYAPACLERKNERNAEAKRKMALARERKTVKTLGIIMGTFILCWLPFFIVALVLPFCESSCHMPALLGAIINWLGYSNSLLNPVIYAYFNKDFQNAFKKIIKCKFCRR
The class given is cell membranes, CHO-K1, Membrane. The note with it: cho-k1.

In experiment [2] the target is T2, Muscarinic acetylcholine receptor M2 (Homo sapiens, UniProt P08172). Note: in other assays of this panel Not Active means under 50% inhibition at 10 µM.
T2 sequence (P08172 whole entry): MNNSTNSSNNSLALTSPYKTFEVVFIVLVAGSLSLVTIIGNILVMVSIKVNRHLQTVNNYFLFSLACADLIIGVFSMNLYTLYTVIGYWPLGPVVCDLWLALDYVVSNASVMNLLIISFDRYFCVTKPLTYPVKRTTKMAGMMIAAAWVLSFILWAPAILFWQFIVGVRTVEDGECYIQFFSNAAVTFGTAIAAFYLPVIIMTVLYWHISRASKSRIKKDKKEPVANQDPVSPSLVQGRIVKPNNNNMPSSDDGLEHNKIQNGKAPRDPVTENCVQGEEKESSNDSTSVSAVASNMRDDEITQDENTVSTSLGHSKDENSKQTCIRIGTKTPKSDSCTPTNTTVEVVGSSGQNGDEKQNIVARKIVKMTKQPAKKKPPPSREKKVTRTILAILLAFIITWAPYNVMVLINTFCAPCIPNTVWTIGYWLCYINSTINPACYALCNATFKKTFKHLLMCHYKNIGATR
The experiment is classed as cell membranes, CHO-K1, Membrane.

Experiment [3] concerns the target T3, Receptor-type tyrosine-protein phosphatase C (Homo sapiens, UniProt P08575).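 Note: inhibition of CD45 enzyme activity measured using DiFMUP as substrate; in other assays of this panel Not Active means under 50% inhibition at 10 µM.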
T3 sequence (P08575 whole entry): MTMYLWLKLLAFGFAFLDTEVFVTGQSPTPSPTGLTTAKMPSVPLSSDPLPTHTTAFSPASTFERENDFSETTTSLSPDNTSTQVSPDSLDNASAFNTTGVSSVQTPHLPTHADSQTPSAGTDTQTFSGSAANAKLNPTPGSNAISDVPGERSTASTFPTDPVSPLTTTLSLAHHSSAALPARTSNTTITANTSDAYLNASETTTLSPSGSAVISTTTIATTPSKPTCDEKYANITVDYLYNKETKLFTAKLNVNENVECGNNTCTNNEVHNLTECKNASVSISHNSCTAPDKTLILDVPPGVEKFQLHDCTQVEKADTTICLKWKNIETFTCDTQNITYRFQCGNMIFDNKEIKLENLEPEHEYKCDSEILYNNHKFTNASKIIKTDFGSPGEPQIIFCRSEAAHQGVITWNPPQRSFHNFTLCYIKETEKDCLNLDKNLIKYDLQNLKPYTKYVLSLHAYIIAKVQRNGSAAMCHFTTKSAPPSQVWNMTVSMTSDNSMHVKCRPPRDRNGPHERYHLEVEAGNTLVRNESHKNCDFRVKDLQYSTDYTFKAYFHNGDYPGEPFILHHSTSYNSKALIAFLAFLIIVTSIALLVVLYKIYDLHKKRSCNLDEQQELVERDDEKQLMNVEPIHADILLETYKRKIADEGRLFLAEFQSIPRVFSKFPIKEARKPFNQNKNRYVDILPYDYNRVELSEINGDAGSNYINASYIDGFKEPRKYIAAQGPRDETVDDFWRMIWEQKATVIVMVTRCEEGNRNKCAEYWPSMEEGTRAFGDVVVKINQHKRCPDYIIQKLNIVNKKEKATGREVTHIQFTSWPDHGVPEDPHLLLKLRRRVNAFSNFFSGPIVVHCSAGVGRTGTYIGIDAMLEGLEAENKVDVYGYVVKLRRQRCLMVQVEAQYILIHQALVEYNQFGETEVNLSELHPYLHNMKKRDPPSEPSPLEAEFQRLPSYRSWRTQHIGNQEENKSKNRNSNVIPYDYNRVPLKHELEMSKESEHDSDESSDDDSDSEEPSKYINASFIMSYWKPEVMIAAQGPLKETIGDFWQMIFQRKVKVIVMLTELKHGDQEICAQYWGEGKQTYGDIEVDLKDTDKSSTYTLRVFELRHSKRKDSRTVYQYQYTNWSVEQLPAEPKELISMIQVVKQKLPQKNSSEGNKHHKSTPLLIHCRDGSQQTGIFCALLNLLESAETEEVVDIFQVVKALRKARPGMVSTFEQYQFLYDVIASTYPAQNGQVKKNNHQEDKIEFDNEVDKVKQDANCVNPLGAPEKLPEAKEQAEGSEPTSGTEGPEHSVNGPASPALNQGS
Further details: species or system Escherichia coli.

For experiment [4], the target named is Beta-1 adrenergic receptor (Homo sapiens, UniProt P08588). As to the kind of experiment: DRUGMATRIX: Adrenergic beta1 radioligand binding (ligand: [125I] Cyanopindolol). The class given is cell membranes, CHO-K1, Membrane. The following applies: cho-k1; Not Active = under 50% inhibition at 10 µM.
Chain of Beta-1 adrenergic receptor (P08588 whole entry): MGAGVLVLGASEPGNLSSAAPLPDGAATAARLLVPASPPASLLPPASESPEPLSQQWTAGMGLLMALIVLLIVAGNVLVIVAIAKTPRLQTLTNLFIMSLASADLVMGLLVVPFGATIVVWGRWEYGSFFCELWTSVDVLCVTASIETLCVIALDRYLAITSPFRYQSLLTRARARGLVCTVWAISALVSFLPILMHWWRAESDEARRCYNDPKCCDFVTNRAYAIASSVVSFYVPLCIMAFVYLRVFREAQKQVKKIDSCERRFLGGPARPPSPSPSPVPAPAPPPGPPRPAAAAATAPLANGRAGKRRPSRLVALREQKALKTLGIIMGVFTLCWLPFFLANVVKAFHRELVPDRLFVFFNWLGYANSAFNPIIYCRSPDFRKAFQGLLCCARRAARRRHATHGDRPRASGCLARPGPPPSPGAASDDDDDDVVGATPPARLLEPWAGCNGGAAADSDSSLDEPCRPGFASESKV
The target in another experiment is Nitric oxide synthase 1 (Rattus norvegicus, UniProt P29476). The class given is tissue-based, Cerebellum. Note: in other assays of this panel Not Active means under 50% inhibition at 10 µM.
Chain of Nitric oxide synthase 1 (P29476 whole entry): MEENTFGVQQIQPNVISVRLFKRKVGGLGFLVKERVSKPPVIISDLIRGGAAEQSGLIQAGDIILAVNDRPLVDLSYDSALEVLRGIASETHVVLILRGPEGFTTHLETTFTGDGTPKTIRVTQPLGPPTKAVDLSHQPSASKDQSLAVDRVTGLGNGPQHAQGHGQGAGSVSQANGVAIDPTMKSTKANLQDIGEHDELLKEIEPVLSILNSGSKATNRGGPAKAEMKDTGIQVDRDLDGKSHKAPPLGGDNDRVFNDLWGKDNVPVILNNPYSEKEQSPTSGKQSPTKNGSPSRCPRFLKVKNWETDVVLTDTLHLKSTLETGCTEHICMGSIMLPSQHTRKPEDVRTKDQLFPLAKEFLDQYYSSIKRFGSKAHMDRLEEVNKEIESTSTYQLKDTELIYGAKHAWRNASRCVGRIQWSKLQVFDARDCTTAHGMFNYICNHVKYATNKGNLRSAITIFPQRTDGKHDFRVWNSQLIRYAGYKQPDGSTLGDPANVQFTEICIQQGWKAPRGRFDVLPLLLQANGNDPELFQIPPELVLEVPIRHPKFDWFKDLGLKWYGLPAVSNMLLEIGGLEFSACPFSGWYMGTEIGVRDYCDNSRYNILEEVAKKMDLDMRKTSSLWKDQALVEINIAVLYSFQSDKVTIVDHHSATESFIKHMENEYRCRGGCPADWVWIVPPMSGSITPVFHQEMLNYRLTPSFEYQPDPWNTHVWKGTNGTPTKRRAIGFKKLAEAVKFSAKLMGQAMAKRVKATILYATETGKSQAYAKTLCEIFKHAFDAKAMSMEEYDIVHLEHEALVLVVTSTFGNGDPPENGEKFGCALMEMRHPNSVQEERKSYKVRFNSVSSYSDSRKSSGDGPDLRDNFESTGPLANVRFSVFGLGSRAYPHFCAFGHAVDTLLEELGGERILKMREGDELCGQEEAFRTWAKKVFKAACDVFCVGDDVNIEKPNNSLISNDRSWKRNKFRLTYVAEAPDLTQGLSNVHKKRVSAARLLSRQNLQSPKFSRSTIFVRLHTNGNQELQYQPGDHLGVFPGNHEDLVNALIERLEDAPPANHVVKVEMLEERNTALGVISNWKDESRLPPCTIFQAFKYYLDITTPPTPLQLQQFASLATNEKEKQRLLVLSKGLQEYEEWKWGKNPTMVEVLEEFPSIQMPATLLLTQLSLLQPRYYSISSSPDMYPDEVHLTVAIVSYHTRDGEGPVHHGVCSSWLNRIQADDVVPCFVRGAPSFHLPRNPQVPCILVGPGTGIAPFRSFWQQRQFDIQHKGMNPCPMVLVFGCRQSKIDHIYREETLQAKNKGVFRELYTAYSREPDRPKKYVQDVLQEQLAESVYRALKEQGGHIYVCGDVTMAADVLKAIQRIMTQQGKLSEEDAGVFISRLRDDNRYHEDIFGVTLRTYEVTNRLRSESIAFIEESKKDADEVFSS
The target in experiment [5] is Platelet-activating factor receptor (Homo sapiens, UniProt P25105). The experiment is classed as tissue-based. Note: in other assays of this panel Not Active means under 50% inhibition at 10 µM.
Chain of Platelet-activating factor receptor (P25105 whole entry): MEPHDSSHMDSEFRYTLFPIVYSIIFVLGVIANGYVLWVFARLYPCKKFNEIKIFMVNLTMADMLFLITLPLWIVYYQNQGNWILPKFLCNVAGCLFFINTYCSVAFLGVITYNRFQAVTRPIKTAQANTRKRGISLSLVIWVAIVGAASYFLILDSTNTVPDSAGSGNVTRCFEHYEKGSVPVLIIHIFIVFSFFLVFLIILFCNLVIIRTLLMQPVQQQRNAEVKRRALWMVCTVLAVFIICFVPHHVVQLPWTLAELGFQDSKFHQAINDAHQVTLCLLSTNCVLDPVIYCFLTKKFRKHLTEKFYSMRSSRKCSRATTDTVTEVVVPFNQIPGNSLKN
Experiment [6] concerns the target C-C chemokine receptor type 2 (Homo sapiens, UniProt P41597). The experiment is classed as cell membranes, CHO-K1, Membrane. The following applies: cho-k1. Note: in other assays of this panel Not Active means under 50% inhibition at 10 µM.

Chain of C-C chemokine receptor type 2 (P41597 whole entry): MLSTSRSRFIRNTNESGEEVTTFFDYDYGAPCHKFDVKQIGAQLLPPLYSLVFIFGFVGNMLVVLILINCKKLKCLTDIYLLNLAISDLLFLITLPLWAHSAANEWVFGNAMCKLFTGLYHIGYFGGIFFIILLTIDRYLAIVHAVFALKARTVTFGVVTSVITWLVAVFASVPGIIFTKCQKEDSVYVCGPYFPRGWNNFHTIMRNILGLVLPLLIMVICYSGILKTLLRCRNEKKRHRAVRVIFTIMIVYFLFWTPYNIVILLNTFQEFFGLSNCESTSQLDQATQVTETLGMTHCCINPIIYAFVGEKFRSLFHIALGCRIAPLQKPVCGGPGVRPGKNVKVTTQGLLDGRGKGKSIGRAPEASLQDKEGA

Consider `CC(C)Cc1ccc([C@H](C)C(=O)O)cc1` [DEXIBUPROFEN], for which the IC50 result (in experiment [1]; in experiment [2] (cho-k1); in experiment [3]; in experiment [4]; against Nitric oxide synthase 1; in experiment [5]) was “Not Active” in each case. Besides, the IC50 entry in experiment [6] is “Not Active”.

For `O=c1[nH]cnc2c1ncn2[C@H]1CC[C@@H](CO)O1` [DIDANOSINE], the IC50 result (in experiment [1]; in experiment [2] (cho-k1); in experiment [3]; in experiment [4]; at Nitric oxide synthase 1; in experiment [5]) was “Not Active” throughout. The IC50 entry in experiment [6] is given as “Not Active”.

Regarding `CC1(COc2ccc(CC3SC(=O)NC3=O)cc2)CCCCC1` (stereo not given) [CIGLITAZONE], the IC50 entry is “Not Active” in experiment [1]; 21.1 µM in experiment [2] (read-out: IC50); “Not Active” in experiment [3]; “Not Active” in experiment [4]; “Not Active” at Nitric oxide synthase 1; “Not Active” in experiment [5]. Moreover, the IC50 result in experiment [6] is on record as “Not Active”. For the same compound, in experiment [2] (read-out: Ki), the Ki turned out to be 7.5 µM.

In the case of `CC(=O)Nc1ccc2c(c1)Cc1ccccc1-2` [2-ACETYLAMINOFLUORENE], the IC50 entry (in experiment [1]; in experiment [2] (cho-k1); in experiment [3]; in experiment [4]; against Nitric oxide synthase 1; in experiment [5]) was “Not Active” in each case. Moreover, the IC50 entry in experiment [6] is listed as “Not Active”.

For the compound `C[C@H](C(=O)O)c1ccc2oc(-c3ccc(F)cc3)nc2c1` [FLUNOXAPROFEN], the IC50 entry (in experiment [1]; in experiment [2] (cho-k1); in experiment [3]; in experiment [4]; against Nitric oxide synthase 1; in experiment [5]) was “Not Active” each time. In addition, the IC50 result in experiment [6] is “Not Active”.

On to `CC(C)Cn1cnc2c(N)nc3ccccc3c21` [IMIQUIMOD], for which the IC50 entry (in experiment [1]; in experiment [3]; in experiment [4]; against Nitric oxide synthase 1; in experiment [5]; in experiment [6]) was “Not Active” each time. Also, in experiment [2] (cho-k1), the Ki result is given as “Not Active”.

For the compound `OC[C@H]1OC2C3[C@@H](CO)OC(O[C@H]4[C@H](O)[C@@H](O)[C@@H](O[C@H]5[C@H](O)[C@@H](O)[C@@H](O[C@H]6[C@H](O)[C@@H](O)[C@@H](O[C@H]7[C@H](O)[C@@H](O)[C@@H](O[C@H]8[C@H](O)[C@@H](O)[C@@H](O[C@H]9[C@H](O)[C@@H](O)C(OC1[C@H](O)[C@H]2O)O[C@@H]9CO)O[C@@H]8CO)O[C@@H]7CO)O[C@@H]6CO)O[C@@H]5CO)O[C@@H]4CO)[C@H](O)[C@H]3O`, the IC50 result (in experiment [1]; in experiment [2] (cho-k1); in experiment [3]; in experiment [4]; against Nitric oxide synthase 1; in experiment [5]) was “Not Active” throughout. The IC50 result in experiment [6] is recorded as “Not Active”.

For the compound `CCN1CCN(c2cc3c(cc2F)c(=O)c(C(=O)O)cn3C2CC2)CC1` [ENROFLOXACIN], the IC50 entry (in experiment [1]; in experiment [2] (cho-k1); in experiment [3]; in experiment [4]; on Nitric oxide synthase 1; in experiment [5]) was “Not Active” in each case. For the same compound, the IC50 entry in experiment [6] was “Not Active”.

As to POVIDONE, the IC50 result (in experiment [1]; in experiment [2] (cho-k1); in experiment [3]; in experiment [4]; against Nitric oxide synthase 1; in experiment [5]) was “Not Active” each time. Besides, the IC50 result in experiment [6] is given as “Not Active”. Moreover, the Ki result (in experiment [1]; in experiment [2] (cho-k1); in experiment [3]; in experiment [4]; at Nitric oxide synthase 1; in experiment [5]) was “Not Active” in each case. Besides, in experiment [6], the Ki result is “Not Active”.

`C=C(Cl)Cl` [1,1-DICHLOROETHENE]: the IC50 entry (in experiment [1]; in experiment [2] (cho-k1); in experiment [3]; in experiment [4]; against Nitric oxide synthase 1; in experiment [5]) was “Not Active” throughout. For the same compound, in experiment [6], the IC50 result was “Not Active”.

On to `C#C[C@]1(O)CC[C@H]2[C@@H]3CCC4=CC(=O)CC[C@@H]4[C@H]3CC[C@@]21C` [NORETHINDRONE], for which the half-maximal inhibitory concentration (IC50) result (in experiment [1]; in experiment [2] (cho-k1); in experiment [3]; in experiment [4]; against Nitric oxide synthase 1; in experiment [5]) was “Not Active” each time. Further, the IC50 entry in experiment [6] is on record as “Not Active”.

Regarding `C=CCN1CC[C@]23c4c5ccc(O)c4O[C@H]2/C(=N/N=C2\CC[C@@]4(O)[C@H]6Cc7ccc(O)c8c7[C@@]4(CCN6CC=C)[C@H]2O8)CC[C@@]3(O)[C@H]1C5` [NALOXONAZINE], the IC50 result (in experiment [1]; in experiment [2] (cho-k1); in experiment [3]; in experiment [4]; on Nitric oxide synthase 1; in experiment [5]) was “Not Active” in each case. Moreover, in experiment [6], the IC50 result is “Not Active”.

As to `Oc1ncnc2[nH]ncc12` [ALLOPURINOL], the IC50 entry (in experiment [1]; in experiment [2] (cho-k1); in experiment [3]; in experiment [4]; against Nitric oxide synthase 1; in experiment [5]) was “Not Active” throughout. The IC50 entry in experiment [6] is listed as “Not Active”.

For the compound `CCC1(c2ccccc2)C(=O)NC(=O)NC1=O` [PHENOBARBITAL], the concentration for half-maximal inhibition (IC50) entry (in experiment [1]; in experiment [2] (cho-k1); in experiment [3]; in experiment [4]; against Nitric oxide synthase 1; in experiment [5]) was “Not Active” each time. In addition, the IC50 entry in experiment [6] is “Not Active”.

Turning to CHROMIC CHLORIDE, the IC50 result (in experiment [1]; in experiment [2] (cho-k1); in experiment [3]; in experiment [4]; on Nitric oxide synthase 1; in experiment [5]) was “Not Active” in each case. Also, the concentration for half-maximal inhibition (IC50) result in experiment [6] is “Not Active”. In addition, the inhibition constant Ki entry (in experiment [1]; in experiment [2] (cho-k1); in experiment [3]; in experiment [4]; at Nitric oxide synthase 1; in experiment [5]) was “Not Active” throughout. Further, the inhibition constant (Ki) result in experiment [6] is on record as “Not Active”.
